Source: patent publication US20210401862A1, “METHODS FOR MODULATING CORTICOSTERONE LEVELS IN PSYCHOLOGICALLY STRESSED INDIVIDUALS” (ABBOTT LABORATORIES, priority 2012, published 2021)

System: early stressed maternally deprived mice
Experiment: Serum stress hormones after acute restraint stress in maternally separated (early stressed) mice fed experimental diets
Format: in vivo, C57BL/6 mice
Procedure: In this Example, the effects of 2-fucosyl-lactose on the production of serum corticosterone in early stressed maternally deprived mice were analyzed. Initially, mice pups were early stressed using a model of maternal separation. Particularly, one day after delivery, C57BL/6 mice pups were sexed and grouped as sham (non-stressed Control group) or maternally separated (MS—stressed group) animals. From day 2 until day 14 after delivery, the MS pups were removed from the dam and kept isolated for a period of 4 hours per day, typically, from 10:00 AM to 2:00 PM, in a thermostatted cup. During the same time period, pups from the sham group were daily handled for a period of five minutes in order to receive the same grade of habituation to a researcher's hands as the MS pups. Each dam had litters of 4 males and 2 females. Females were allowed to stay with the mother, while males were maternally deprived in order to avoid stressing the dam by removing all of the pups. Additionally, pups from the MS group were prematurely weaned, and thus permanently removed from the dam, at postnatal day 17, whereas sham pups were not weaned until postnatal day 21. At postnatal day 22, all pups in the MS group were pooled and four experimental groups were made before starting nutritional intervention. [table] At the nutritional intervention stage, mice were fed experimental diets for a period of eight weeks. After eight weeks, blood samples were taken from facial veins of the mice in order to measure basal stress hormones (i.e., corticosterone, adrenocorticotropic hormone (ACTH), and melatonin). Stress hormones were measured using luminex technology using a multiplex commercial kit (commercially available from Millipore Corporation, Billerica, Mass.) Seven days later, mice were submitted to an acute stress by restraint protocol. Particularly, mice were placed into a multi-drilled 50-ml centrifuge tube for 20 minutes. After this time, mice were extracted from the tube, and again, blood samples were taken in order to measure serum stress hormones immediately after the acute stressful event (i.e., restraint).

[1] = MS-stressed mice, supplemented diet about 7 mg/mouse/day, post-restraint, stated for any of the experimental groups

2-fucosyl-lactose [2-fucosyllactose] was tested, and the “serum corticosterone levels in response to restraint, compared with MS mice on the control diet” value (AIN93G diet with about 7 mg/mouse/day for eight weeks, blood taken immediately after 20 minutes restraint, Group C vs MS control Group D) was “significantly lower”, the “serum corticosterone levels in response to restraint, compared with normal sham mice” value (MS-stressed mice, AIN93G diet with about 7 mg/mouse/day for eight weeks, blood taken immediately after 20 minutes restraint, Group C vs sham Group E) was “equal that of the normal sham mice” and the “ACTH serum levels post-restraint” value [1] was “no effects”. For the same substance, the “melatonin serum levels post-restraint” value [1] was “no effects”.
